Source: patent publication US9463189B2 (BPV Holdings, LLC, priority 2007, dated 2016)
Where a name gives a salt, the structure may show the parent alone.

Key:
NASH mice [1] = assay: Hepatic fibrosis, Trichrome staining of liver sections; type: in vivo, C57B1/6J mice
Description: Early Steatosis Model: C57B1/6J mice (22-39 days old) mice were used for the study. Mice were fed normal chow food (Lab Diet, 5P14Prolab Animal Diet, PMI Nutritional International, Brentwood, Mo., Cat# RMH 2500) or 58% high fat diet (HFD, 58 kcal % fat and corn starch with purple dye, Research Diets, New Brunswick, N.J., Cat# D12330 equivalent to Western diet) for 120-150 days. […] This group is referred to as the HFD-low body group in FIG. 1A (insulin & liver fat accumulation˜normal). On the other hand, one fifth of the mice gained 60-70% higher body weight (compared to normal chow fed mice) while on the same HFD diet (NASH group, very high insulin and liver fat) further shown in FIG. 1A. […]
(§1) The development of NASH was further confirmed using histological analyses of liver. The sections were analyzed for 1) hepatic steatosis 2) necroinflammation, and 3) fibrosis. Histological analyses of hepatic steatosis was assessed by quantitative image analysis of Oil Red O stain in liver sections and defined as the percentage of Oil Red ‘O’ positive area relative to the total image area.
Following 120-150 days on the HFD, mice in the NASH group were treated with Compound 2 (5 or 10 mg/Kg/day) or vehicle (10% Encapsin) for 42 days. […] Body weight and food intake was measured throughout the study. […]

PPAR = conditions: shown in US2006/0167012A1 and US2006/0205736A1; cited from earlier work
NASH mice [2] = assay: Macrophage infiltration in liver, F4/80 staining; type: in vivo, C57B1/6J mice
Protocol: NASH-induced inflammation and lipid accumulation in the liver promotes infiltration of monocytes from peripheral circulation into the liver. Hepatic inflammatory status of NASH mice was assessed by histological assessment of the presence of macrophage specific markers including F4/80 in liver sections. An F4/80 antibody stain used is to quantitatively differentiate monocyte/macrophage cell population in the blood and tissue: infiltrating monocytes are F4/80 bright whereas liver macrophages (Kupffer cells) are F4/80 dull. There was a striking increase in the number of F4/80 bright macrophages in the liver of the NASH mice (data not shown) that is attenuated by treatment with Compound 2 (42 days, 5 mg/Kg/day) treated NASH (FIG. 4).
F4/80 stain was used to illustrate macrophage infiltration in liver tissue. The following protocol was followed: • 1. Check the number of sections per slide; if there is 1 section then use 2 slides from the same group per staining run (1 for ctrl IgG and 1 for primary antibody of interest). If there are 2 sections per slide then use 1 slide per group per run and separate the sections using a PAP pen. • 2. De-paraffin slides through 3×5-minutes Propar clearant, and re-hydrate with 5-minutes each in decreased concentrations of reagent alcohol to water (100%, 95%, 75%, water). • 3. Use Citrate buffer pH 6.0 for HIER (heat-induced epitope retrieval). […]

NASH mice [3] = assay: Hepatic steatosis / lipid accumulation in liver, Oil Red O stain image analysis; type: in vivo, C57B1/6J mice
Description: Early Steatosis Model: C57B1/6J mice (22-39 days old) mice were used for the study. Mice were fed normal chow food (Lab Diet, 5P14Prolab Animal Diet, PMI Nutritional International, Brentwood, Mo., Cat# RMH 2500) or 58% high fat diet (HFD, 58 kcal % fat and corn starch with purple dye, Research Diets, New Brunswick, N.J., Cat# D12330 equivalent to Western diet) for 120-150 days. […] This group is referred to as the HFD-low body group in FIG. 1A (insulin & liver fat accumulation˜normal). On the other hand, one fifth of the mice gained 60-70% higher body weight (compared to normal chow fed mice) while on the same HFD diet (NASH group, very high insulin and liver fat) further shown in FIG. 1A. The majority of the mice (three fifths) gained body weight as expected on the HFD (30-40% higher than the normal chow fed mice) and is referred to as the DIO group (normal to moderately high insulin and liver fat accumulation) as shown in FIG. 1A. Control animals (n=5) representative of the HFD-low body weight and the NASH groups were sacrificed prior to starting the rest of the animals on treatment with the Compound 2 (5 or 10 mg/Kg/day). Liver, white adipose and muscle from the sacrificed mice were collected for histology performed on the liver tissue.
as §1
Following 120-150 days on the HFD, mice in the NASH group were treated with Compound 2 (5 or 10 mg/Kg/day) or vehicle (10% Encapsin) for 42 days. Fasting and post prandial (PP) blood draws were taken at the beginning of the study (compound treatment) to identify and confirm the NASH group and during the study to evaluate various pharmacological responses. Since the NASH mice are severely hyperinsulinemic compared to NC mice, glucose tolerance testing (GTT, measures peripheral insulin resistance) was performed to evaluate the effect of Compound 2 on improvement of peripheral insulin sensitivity. Treatment was administered for 42 days (separate experiments). Body weight and food intake was measured throughout the study.
Staining was prepared with Oil Red ‘O’ that stains fat deposits red on frozen tissues where positive staining indicates lipid accumulation. Trichrome staining was used to illuminate fibrosis; collagen deposits appear blue and positive staining indicates fibrosis.

[4] = oral administration, NASH mice, summary

C[C@@H]1CN(Cc2ccc(OC(F)(F)F)cc2)C[C@H](C)N1S(=O)(=O)c1cccc2c1C[C@@H](C(=O)O)C2 [Compound 2, (S)-4-[cis-2,6-Dimethyl-4-(4-trifluoromethoxy-benzyl)-piperazine-1-sulfonyl]-indan-2-carboxylic acid tosylate]
attenuation of progression of fibrosis, Trichrome staining of liver sections (NASH mice [1]; 10 mg/Kg/day, p<0.03, FIG. 3B): 41% | progression to fibrosis measured by histological presence of collagen deposits in the liver (NASH mice [1]; [4]): attenuated progression to fibrosis | PPAR modulator activity (PPAR): PPAR modulators | number of F4/80 bright macrophages in the liver of the NASH mice (NASH mice [2]; 42 days, 5 mg/Kg/day, FIG. 4): attenuated | macrophage infiltration in the liver (NASH mice [2]; [4]): attenuated macrophage infiltration | fat accumulation in the livers of treated vs. non-treated NASH mice (NASH mice [3]; 42 days of 10 mg/kg/day): reduced fat accumulation | Percent Field Area, Lipid (stained oil deposits) (NASH mice [3]; HFD + Compound 2, 10 mg/kg, 42 days, liver sections, HFD + Vehicle 47.7% +/− 5.5): 16.0% +/− 7.6 | Percent Field Area, Cytoplasm (NASH mice [3]; HFD + Compound 2, 10 mg/kg, 42 days, liver sections, HFD + Vehicle 91% +/− 2.4): 38.6% +/− 2.3 | reduced lipid accumulation in the liver (NASH mice [3]; oral administration, NASH mice, p<0.03 vs. vehicle): 32%
